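Cells were grown in 96-well plates and exposed to each compound for 48 hours at five concentrations; endpoints were interpolated linearly between bracketing concentrations, or set to the highest concentration if not reached. Here, GI50 denotes the concentration required for 50% inhibition of growth.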 Activity calls are given as the source filed them. Cut-off read from the data, not from the text of the source: active = GI50 up to about 1.1 µM and inactive = higher.
What was measured:
Experiment in all cases: NCI-60 cell line screen, 48 h
786-0 = test system: 786-0
A498 = test system: A498
A549 = test system: A549
ACHN = test system: ACHN
BT-549 = test system: BT-549
CAKI-1 = test system: CAKI-1
CCRF-CEM = test system: CCRF-CEM
COLO 205 = test system: COLO 205
DU-145 = test system: DU-145
EKVX = test system: EKVX
HCT-116 = test system: HCT-116
HCT-15 = test system: HCT-15
HL-60 = test system: HL-60
HOP-62 = test system: HOP-62
HOP-92 = test system: HOP-92
HT-29 = test system: HT-29
Hs-578T = test system: Hs-578T
IGROV-1 = test system: IGROV-1
K562 = test system: K562
KM12 = test system: KM12
LOX IMVI = test system: LOX IMVI
M14 = test system: M14
MCF7 = test system: MCF7
MDA-MB-231 = test system: MDA-MB-231
MDA-MB-435 = test system: MDA-MB-435
MDA-N = test system: MDA-N
MOLT-4 = test system: MOLT-4
Malme-3M = test system: Malme-3M
NCI-H226 = test system: NCI-H226
NCI-H23 = test system: NCI-H23
NCI-H460 = test system: NCI-H460
NCI-H522 = test system: NCI-H522
NCI/ADR-RES = test system: NCI/ADR-RES
OVCAR-3 = test system: OVCAR-3
OVCAR-4 = test system: OVCAR-4
OVCAR-5 = test system: OVCAR-5
OVCAR-8 = test system: OVCAR-8
PC-3 = test system: PC-3
RPMI-8226 = test system: RPMI-8226
RXF 393 = test system: RXF 393
SF-268 = test system: SF-268
SF-295 = test system: SF-295
SF-539 = test system: SF-539
SK-MEL-28 = test system: SK-MEL-28
SK-MEL-2 = test system: SK-MEL-2
SK-MEL-5 = test system: SK-MEL-5
SK-OV-3 = test system: SK-OV-3
SN12C = test system: SN12C
SNB-19 = test system: SNB-19
SNB-75 = test system: SNB-75
SR = test system: SR
SW-620 = test system: SW-620
T47D = test system: T47D
TK-10 = test system: TK-10
U-251 = test system: U-251
UACC-257 = test system: UACC-257
UACC-62 = test system: UACC-62
UO-31 = test system: UO-31
HCC 2998 = test system: HCC 2998

Measured: GI50

CC1(O)CC(=O)c2c(cc3ccc(-c4c5c(c(O)c6c(O)cccc46)C(=O)CC(C)(O)C5)c(O)c3c2O)C1 (centres undefined)
0.09 µM: HCT-15
inactive: SK-OV-3 2.01 µM | SN12C 1.39 µM | UACC-62 1.46 µM
active: 786-0 0.435 µM | A498 0.465 µM | A549 0.365 µM | ACHN 0.125 µM | BT-549 0.347 µM | CAKI-1 0.401 µM | CCRF-CEM 0.38 µM | COLO 205 0.0442 µM | DU-145 0.33 µM | EKVX 0.562 µM | HCT-116 0.0647 µM | HL-60 0.16 µM | HOP-62 0.296 µM | HOP-92 0.242 µM | HT-29 0.409 µM | Hs-578T 0.265 µM | IGROV-1 0.348 µM | K562 0.298 µM | KM12 0.0278 µM | LOX IMVI 0.817 µM | M14 0.406 µM | MCF7 0.199 µM | MDA-MB-231 0.311 µM | MDA-MB-435 0.279 µM | MDA-N 0.867 µM | MOLT-4 0.422 µM | Malme-3M 0.248 µM | NCI-H226 0.448 µM | NCI-H23 0.0574 µM | NCI-H460 0.16 µM | NCI-H522 0.213 µM | NCI/ADR-RES 0.441 µM | OVCAR-3 0.0953 µM | OVCAR-4 0.27 µM | OVCAR-5 0.611 µM | OVCAR-8 0.332 µM | PC-3 0.0834 µM | RPMI-8226 0.0509 µM | RXF 393 < 0.01 µM | SF-268 0.194 µM | SF-295 0.179 µM | SF-539 0.174 µM | SK-MEL-28 0.326 µM | SK-MEL-2 0.271 µM | SK-MEL-5 0.187 µM | SNB-19 0.18 µM | SNB-75 0.129 µM | SR 0.367 µM | SW-620 0.468 µM | T47D 0.562 µM | TK-10 0.767 µM | U-251 0.06 µM | UACC-257 0.324 µM | UO-31 0.212 µM

O=C(O)c1nc2ccc(Cl)cc2[nH]c1=O
inactive: 786-0 > 100 µM | A498 > 100 µM | A549 > 100 µM | ACHN > 100 µM | BT-549 > 100 µM | CAKI-1 > 100 µM | CCRF-CEM > 100 µM | COLO 205 > 100 µM | DU-145 > 100 µM | EKVX > 100 µM | HCC 2998 > 100 µM | HCT-116 > 100 µM | HL-60 > 100 µM | HOP-62 > 100 µM | HOP-92 > 100 µM | HT-29 > 100 µM | Hs-578T > 100 µM | IGROV-1 > 100 µM | K562 > 100 µM | KM12 > 100 µM | LOX IMVI > 100 µM | M14 > 100 µM | MCF7 > 100 µM | MDA-MB-231 > 100 µM | MDA-MB-435 > 100 µM | MDA-N > 100 µM | MOLT-4 > 100 µM | Malme-3M > 100 µM | NCI-H226 > 100 µM | NCI-H23 > 100 µM | NCI-H460 > 100 µM | NCI-H522 > 100 µM | NCI/ADR-RES > 100 µM | OVCAR-3 > 100 µM | OVCAR-4 > 100 µM | OVCAR-5 > 100 µM | OVCAR-8 > 100 µM | PC-3 > 100 µM | RPMI-8226 > 100 µM | RXF 393 > 100 µM | SF-268 > 100 µM | SF-295 > 100 µM | SF-539 > 100 µM | SK-MEL-28 > 100 µM | SK-MEL-2 > 100 µM | SK-MEL-5 > 100 µM | SK-OV-3 > 100 µM | SN12C > 100 µM | SNB-19 > 100 µM | SR > 100 µM | SW-620 > 100 µM | T47D > 100 µM | TK-10 > 100 µM | U-251 > 100 µM | UACC-257 > 100 µM | UACC-62 > 100 µM | UO-31 46.8 µM
> 100 µM: HCT-15

N#CC1C(=S)NC(c2ccccc2)=CC12CCCCC2 (centres undefined)
inactive: 786-0 35 µM | A498 22.8 µM | A549 29.6 µM | ACHN 25.1 µM | BT-549 15.8 µM | CAKI-1 47.3 µM | CCRF-CEM 25.5 µM | COLO 205 30.1 µM | DU-145 26.6 µM | EKVX 17.8 µM | HCC 2998 > 100 µM | HCT-116 24.5 µM | HL-60 22.2 µM | HOP-92 18.6 µM | HT-29 27.6 µM | Hs-578T 53.7 µM | IGROV-1 23.4 µM | K562 26.5 µM | KM12 22.9 µM | LOX IMVI 18.6 µM | M14 26.1 µM | MCF7 21.9 µM | MDA-MB-231 38.9 µM | MDA-MB-435 18.2 µM | MDA-N 31.5 µM | MOLT-4 20.7 µM | Malme-3M 22.2 µM | NCI-H226 26.7 µM | NCI-H23 15.7 µM | NCI-H460 94.8 µM | NCI-H522 22.1 µM | NCI/ADR-RES 28.8 µM | OVCAR-4 26.4 µM | OVCAR-5 37.5 µM | OVCAR-8 32.1 µM | PC-3 38 µM | RPMI-8226 23.3 µM | RXF 393 87.1 µM | SF-268 66.8 µM | SF-539 43 µM | SK-MEL-28 34.4 µM | SK-MEL-2 24 µM | SK-MEL-5 25.1 µM | SN12C 35 µM | SNB-19 32.5 µM | SNB-75 58.7 µM | SR 21.1 µM | SW-620 38.8 µM | T47D 10.8 µM | TK-10 23 µM | U-251 31.1 µM | UACC-257 64.7 µM | UACC-62 20 µM | UO-31 25 µM
19.9 µM: HCT-15

O=C1c2ccccc2C2(c3ccc(Cl)cc3)NCc3ccccc3CN12 (centres undefined)
21.9 µM: HCT-15
inactive: 786-0 13.6 µM | A498 19.4 µM | A549 18.5 µM | ACHN 21.6 µM | BT-549 43.1 µM | CAKI-1 63 µM | CCRF-CEM 25.9 µM | COLO 205 15.1 µM | DU-145 21.3 µM | EKVX 20.6 µM | HCC 2998 20.4 µM | HCT-116 10.8 µM | HL-60 14 µM | HOP-62 15.5 µM | HOP-92 19.7 µM | HT-29 15.2 µM | Hs-578T 22.5 µM | IGROV-1 24.2 µM | K562 32.9 µM | KM12 21.9 µM | LOX IMVI 16.2 µM | M14 18 µM | MCF7 17.4 µM | MDA-MB-231 57.4 µM | MDA-MB-435 26.7 µM | MDA-N 56 µM | MOLT-4 24.8 µM | NCI-H23 17.7 µM | NCI-H460 27.9 µM | NCI/ADR-RES 14 µM | OVCAR-3 13.4 µM | OVCAR-4 23.7 µM | OVCAR-5 21.7 µM | OVCAR-8 23.1 µM | PC-3 16.1 µM | RPMI-8226 21.8 µM | RXF 393 16.1 µM | SF-268 35.1 µM | SF-295 18.3 µM | SF-539 16.3 µM | SK-MEL-28 25.2 µM | SK-MEL-2 13.7 µM | SK-MEL-5 16 µM | SK-OV-3 31.2 µM | SN12C 43.4 µM | SNB-19 17 µM | SNB-75 52.8 µM | SR 24.7 µM | SW-620 37.2 µM | T47D 16.4 µM | TK-10 31.3 µM | U-251 28.6 µM | UACC-257 33 µM | UACC-62 17.3 µM | UO-31 22.5 µM

Nc1nc(N)c2cc(-c3cc4ccccc4[nH]3)ccc2n1
inactive: 786-0 22.5 µM | A498 18.1 µM | A549 32.2 µM | ACHN 18.9 µM | BT-549 23 µM | CAKI-1 27.4 µM | CCRF-CEM 35.2 µM | COLO 205 10.3 µM | DU-145 21.3 µM | EKVX 29 µM | HCT-116 31.8 µM | HL-60 19.7 µM | HOP-62 30.8 µM | HOP-92 12.2 µM | HT-29 15.5 µM | Hs-578T 32.1 µM | IGROV-1 15.8 µM | KM12 17.8 µM | LOX IMVI 18.5 µM | M14 17.6 µM | MCF7 18.1 µM | MDA-MB-231 17.2 µM | MDA-MB-435 18.5 µM | MDA-N 19.8 µM | MOLT-4 26.5 µM | Malme-3M 16 µM | NCI-H226 27.7 µM | NCI-H23 27.5 µM | NCI-H460 19.2 µM | NCI-H522 17.5 µM | NCI/ADR-RES 30.3 µM | OVCAR-3 35.6 µM | OVCAR-4 21.9 µM | OVCAR-5 18.6 µM | OVCAR-8 32.5 µM | PC-3 26.2 µM | RPMI-8226 14.3 µM | RXF 393 24.8 µM | SF-268 22.2 µM | SF-295 27.6 µM | SF-539 19.5 µM | SK-MEL-28 22.2 µM | SK-MEL-2 18.2 µM | SK-MEL-5 15.2 µM | SK-OV-3 45.3 µM | SN12C 33 µM | SNB-19 33 µM | SNB-75 32.4 µM | SR 30.2 µM | SW-620 30.8 µM | T47D 3.48 µM | TK-10 17.7 µM | U-251 30.4 µM | UACC-257 16.2 µM | UACC-62 17.4 µM | UO-31 15.7 µM
22.1 µM: HCT-15

Reference: ChEMBL document CHEMBL1201862, “PubChem BioAssay data set” (2004)
